Reference: patent publication US9427415B2, “Methods and compositions for modifying sensorial perception” (The Procter & Gamble Company, priority 2014, dated 2016)
Structures can show the parent of a compound that is named as a salt. Where two headings read alike, the source gives them in different places.

Columns and labels:
human TRPA1 = biological target: T1, human TRPA1 (Homo sapiens, UniProt O75762, K186N/R3C/R58T); test: Intracellular calcium (Fluo-4, FLIPR) activation of TRPA1 cells by GRAS compounds; assay type: cell-based; details: for activation at 1000 µM / activation at 100 µM: read-out: A1 activation, % of agonist value;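 for all read-outs here: TRPA1-expressing cells, fluorescence read on a FLIPR Tetra (ex 488 nm, em 514 nm) every 2 s for 10 min after compound addition, baseline subtracted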
T1 construct: expressed in transfected cells; pcDNA3 control cells
T1 sequence (O75762 whole entry R3C/R58T/K186N): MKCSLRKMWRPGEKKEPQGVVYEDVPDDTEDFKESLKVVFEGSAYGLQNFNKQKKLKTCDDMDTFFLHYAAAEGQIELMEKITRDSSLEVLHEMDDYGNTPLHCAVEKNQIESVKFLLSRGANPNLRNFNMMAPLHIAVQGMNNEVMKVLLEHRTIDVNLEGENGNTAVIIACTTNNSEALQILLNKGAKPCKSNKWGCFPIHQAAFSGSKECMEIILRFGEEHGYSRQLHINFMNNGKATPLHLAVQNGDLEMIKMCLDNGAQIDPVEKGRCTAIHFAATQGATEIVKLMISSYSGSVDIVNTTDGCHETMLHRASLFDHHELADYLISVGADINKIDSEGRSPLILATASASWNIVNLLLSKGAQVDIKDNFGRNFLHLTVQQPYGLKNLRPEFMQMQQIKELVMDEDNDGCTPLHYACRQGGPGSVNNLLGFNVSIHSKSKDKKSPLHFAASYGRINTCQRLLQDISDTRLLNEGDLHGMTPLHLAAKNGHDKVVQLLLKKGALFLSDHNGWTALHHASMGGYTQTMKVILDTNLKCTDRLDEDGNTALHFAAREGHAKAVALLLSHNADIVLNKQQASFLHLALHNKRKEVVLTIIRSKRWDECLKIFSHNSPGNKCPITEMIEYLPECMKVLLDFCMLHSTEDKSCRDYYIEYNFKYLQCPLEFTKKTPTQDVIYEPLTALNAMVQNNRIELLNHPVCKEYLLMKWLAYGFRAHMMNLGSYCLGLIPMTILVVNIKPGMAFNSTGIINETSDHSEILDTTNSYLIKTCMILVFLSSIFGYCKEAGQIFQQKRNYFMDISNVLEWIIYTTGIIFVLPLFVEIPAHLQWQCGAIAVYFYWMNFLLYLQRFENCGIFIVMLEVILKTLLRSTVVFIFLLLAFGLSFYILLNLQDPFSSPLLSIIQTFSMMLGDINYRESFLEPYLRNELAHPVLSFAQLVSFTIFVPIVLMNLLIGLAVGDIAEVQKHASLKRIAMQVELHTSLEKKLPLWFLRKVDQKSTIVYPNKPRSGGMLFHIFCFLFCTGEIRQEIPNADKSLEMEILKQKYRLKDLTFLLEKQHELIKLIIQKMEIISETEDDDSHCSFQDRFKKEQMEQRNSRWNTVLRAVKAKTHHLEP

TRPA1V1 = test: Intracellular calcium (Fluo-4, FLIPR) activation of TRPA1V1 cells (co-expressing TRPA1 and TRPV1) by GRAS compounds; assay type: cell-based, human; details: relative to AITC 30 μM;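 note: HEK293 cells co-expressing TRPA1 and TRPV1, fluorescence read at 488/514 nm after baseline subtraction, recorded every 2 s over 10 min, ionomycin 10 µM and buffer as controls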
[1] = Table 1(d), 1 mM, relative to AITC 30 μM
[2] = Table 1(c), 1 mM, relative to AITC 30 μM
[3] = Table 1(e), 1 mM, relative to AITC 30 μM
[4] = Table 1(c), relative to AITC 30 μM

Row | SMILES | activation at 1000 µM (human TRPA1; [2]) [%] | A1V1 activation, % of agonist value (TRPA1V1; Table 1(c), 1 mM) [%] | further results
1 | CCCOC(C)OCCc1ccccc1 (centres unmarked) [Acetaldehyde, phenethyl propyl acetal] |  |  | A1 activation, % of agonist value (human TRPA1; [1]): 86.4%; A1V1 activation, % of agonist value (TRPA1V1; Table 1(d), 1 mM): 62.2%
2 | C=CCOC(=O)c1ccccc1N [Allyl anthranilate] | 73.8 | 75.03 | 
3 | C=CCOC(=O)Cc1ccccc1 [Allyl phenylacetate] | 86.2 | 84.14 | 
4 | C=CCCC(=O)/C=C/C1C(C)=CCCC1(C)C (stereo not drawn) [Allyl-alpha-ionone] |  |  | A1 activation, % of agonist value (human TRPA1; [3]): 52.6%; A1V1 activation, % of agonist value (TRPA1V1; Table 1(e), 1 mM): 89.7%
5 | COc1ccc(C=C(C)C=O)cc1 [Alpha Methyl-4-methoxycinnamaldehyde] |  |  | activation at 1000 µM (human TRPA1; [3]): 67.1%; A1V1 activation, % of agonist value (TRPA1V1; Table 1(e), 1 mM): 85.80%
6 | CC(C)CC(O)Cc1ccccc1 (stereo not drawn) [Alpha-Isobutylphenethyl alcohol] | 73 | 58.62 | 
7 | CCCCCOC(=O)c1ccco1 [Amyl furoate] |  | 87.70 | A1 activation, % of agonist value (human TRPA1; [2]): 81.09%
8 | COc1ccc(COC=O)cc1 [Anisyl formate] |  | 78.2 | A1 activation, % of agonist value (human TRPA1; [2]): 89.5%
9 | OCc1ccccc1 [Benzenemethanol] | 79.6 | 78.47 | 
10 | O=C(c1ccccc1)C(O)c1ccccc1 (centres unmarked) [Benzoin] |  |  | activation at 1000 µM (human TRPA1; [3]): 26.2%; A1V1 activation, % of agonist value (TRPA1V1; Table 1(e), 1 mM): 61.81%
11 | O=C(Nc1ccccc1C(=O)O)c1ccccc1 [Benzoylanthranilic acid] |  | 125.6 | A1 activation, % of agonist value (human TRPA1; [2]): 145.9%
12 | Cc1ccc(C(C)O)cc1 (stereo not drawn) [Benzyl alcohol, p,alpha-dimethyl-] |  | 71.8 | A1 activation, % of agonist value (human TRPA1; [2]): 77.2%
13 | CCCC(=O)OCc1ccccc1 [Benzyl butyrate] | 70 | 64.7 | 
14 | CCC(=O)OCc1ccccc1 [Benzyl propionate] | 103 | 90.7 | 
15 | CC(C)=CCC[C@](C)(O)C1CC=C(C)CC1 (some centres unmarked) [Bisabolol] | 68 | 73.53 | 
16 | O=CC=Cc1ccccc1 [Cinnamaldehyde] |  |  | activation at 1000 µM (human TRPA1): 51.2%; A1V1 activation, % of agonist value (TRPA1V1; Table 1(e), 1 mM): 77.3%
17 | O=C(O)C=Cc1ccccc1 [Cinnamic acid] | 37.7 | 42.5 | 

Row | SMILES | activation at 1000 µM (human TRPA1; [2]) [%] | A1V1 activation, % of agonist value (TRPA1V1; Table 1(c), 1 mM) [%] | further results
18 | CC(=O)OCC=Cc1ccccc1 [Cinnamyl acetate] | 85 | 89.73 | 
19 | OCC=Cc1ccccc1 [Cinnamyl alcohol] |  | 79.4 | activation at 1000 µM (human TRPA1): 89.8%
20 | CCCCC/C=C\CCO [Cis-3-nonen-1-ol] |  |  | activation at 1000 µM (human TRPA1; [1]): 55%; A1V1 activation, % of agonist value (TRPA1V1; Table 1(d), 1 mM): 41.22%
21 | COC(C=C(C)CCC=C(C)C)OC [Citral dimethyl acetal] |  |  | activation at 1000 µM (human TRPA1; [3]): 102%; A1V1 activation, % of agonist value (TRPA1V1; Table 1(e), 1 mM): 137.2%
22 | CC(C)=CCCC(C)=CC=O [Citral] | 145 | 132.7 | 
23 | CCCC(=O)OCCC(C)CCC=C(C)C (centres unmarked) [Citronellyl butyrate] |  |  | activation at 100 µM (human TRPA1; [4]): 44.9%; A1V1 activation, % of agonist value (TRPA1V1; Table 1(c), 100 μM (*)): 57.9%
24 | CCC(=O)OCCC(C)CCC=C(C)C (centres unmarked) [Citronellyl propionate] |  |  | activation at 100 µM (human TRPA1; [4]): 52.5%; A1V1 activation, % of agonist value (TRPA1V1; Table 1(c), 100 μM (*)): 43.2%
25 | CC(C=O)Cc1ccc(C(C)C)cc1 (centres unmarked) [Cyclamen aldehyde] |  |  | A1 activation, % of agonist value (human TRPA1; [3]): 94.1%; A1V1 activation, % of agonist value (TRPA1V1; Table 1(e), 1 mM): 120.9%
26 | CCCCCCCCCC(=O)O [Decanoic acid] | 65.1 | 73.45 | 
27 | CC(=O)CCC1=C(C)CCCC1(C)C [Dihydro-beta-ionone] |  | 64.07 | A1 activation, % of agonist value (human TRPA1; [2]): 64.4%
28 | CCOC(=O)C(Cc1ccccc1)C(C)=O (centres unmarked) [Ethyl 2-benzylacetoacetate] |  | 115 | activation at 1000 µM (human TRPA1): 98%
29 | CCOC(=O)C(C)S (centres unmarked) [Ethyl 2-mercaptopropionate] |  |  | activation at 100 µM (human TRPA1; [4]): 88.3%; A1V1 activation, % of agonist value (TRPA1V1; Table 1(c), 100 μM (*)): 70.2%
30 | CCCCCC=CC(=O)OCC [Ethyl 2-octenoate] | 128 | 120 | 
31 | CCCCCC(=O)CCCC(=O)OCC [Ethyl 5-oxodecanoate] |  |  | activation at 1000 µM (human TRPA1; [1]): 51%; A1V1 activation, % of agonist value (TRPA1V1; Table 1(d), 1 mM): 28.24%
32 | CCOC(=O)c1ccccc1 [Ethyl benzoate] | 70 | 60 | 
33 | CCOC(=O)CCc1ccccc1 [Ethyl hydrocinnamate] |  |  | activation at 1000 µM (human TRPA1; [1]): 72.2%; A1V1 activation, % of agonist value (TRPA1V1; Table 1(d), 1 mM): 50.9%
34 | CCOC(=O)c1ccc(OC)cc1 [Ethyl p-anisate] | 91.2 | 93.1 | 
